From PubChem BioAssay (NCI)
“And” between values parts separate entries of the source, which are not always exact repeats. Identical values can stand only once.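 Assay format: 96-well plates, 48-hour exposure. GI50 marks 50% less growth. TGI marks complete inhibition of growth.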

How the values were obtained:
Test in all cases: inhibition of tumour cell growth, NCI panel, 48 h
TK-10 renal = test system: TK-10 renal
UO-31 renal = test system: UO-31 renal
SK-MEL-2 melanoma = test system: SK-MEL-2 melanoma
LOX IMVI melanoma = test system: LOX IMVI melanoma
ACHN renal = test system: ACHN renal
SF-295 CNS = test system: SF-295 CNS
SF-268 CNS = test system: SF-268 CNS
KM12 colon = test system: KM12 colon
NCI-H226 lung = test system: NCI-H226 lung
COLO 205 colon = test system: COLO 205 colon

SMILES | TGI (TK-10 renal) | TGI (UO-31 renal) | TGI (SK-MEL-2 melanoma) | TGI (LOX IMVI melanoma) | TGI (ACHN renal) | TGI (SF-295 CNS) | TGI (SF-268 CNS) | TGI (KM12 colon) | TGI (NCI-H226 lung) | TGI (COLO 205 colon) [nM] | GI50 (TK-10 renal) [nM] | GI50 (UO-31 renal) [nM] | GI50 (SK-MEL-2 melanoma) | GI50 (LOX IMVI melanoma) | GI50 (ACHN renal) | GI50 (SF-295 CNS) | GI50 (SF-268 CNS) | GI50 (KM12 colon) [nM] | GI50 (NCI-H226 lung) [nM] | GI50 (COLO 205 colon) [nM]
CC(C)(CN1C(=O)C(Cl)=C(Cl)C1=O)CN1C(=O)C(Cl)=C(Cl)C1=O | 22200 nM | 47200 nM | 41000 nM | 33500 nM | 21700 nM | 58800 nM | 41500 nM | 57400 nM | 53400 nM | 8660 | – | – | – | – | – | – | – | – | – | –
COc1ccc2nc3cc(Cl)ccc3c(NCCCNCCO)c2c1 | 3200 nM | 3190 nM | 2790 nM | 1120 nM | 3250 nM | 2320 nM | 2660 nM | 2810 nM | 3120 nM | 1140 | 587 | 602 | 1320 nM | 294 nM | 403 nM | 523 nM | 577 nM | 498 | 1160 | 241
COc1cnc2c(c1)C(=O)c1c-2n(CCCNC2=NCCS2)c(=O)c2cc(F)ccc12 | 2520 nM | 1120 nM | 32700 nM | 1120 nM | 1910 nM | 891 nM | 2580 nM | 3680 nM | 1660 nM | 1910 | 1120 | 108 | 15800 nM | 111 nM | 49.6 nM | 51.8 nM | 135 nM | 577 | 247 | 201
CO[C@H]1C[C@@H]2CC[C@@H](C)[C@@](O)(O2)C(=O)C(=O)N2CCCC[C@H]2C(=O)O[C@H]([C@H](C)C[C@@H]2CC[C@@H](OC(=O)C(C)(CO)CO)[C@H](OC)C2)CC(=O)[C@H](C)/C=C(\C)[C@@H](O)[C@@H](OC)C(=O)[C@H](C)C[C@H](C)\C=C/C=C/C=C/1C | > 10000 nM | > 10000 nM | > 10000 nM | > 10000 nM | > 10000 nM | > 10000 nM | > 10000 nM | > 10000 nM | > 10000 nM | > 10000 | – | 1.02 | 1680 nM | 4.35 nM | > 9240 nM | < 1 nM | – | > 10000 | 27.3 | > 5940
COc1cc(C2c3cc4c(cc3[C@@H](NCCN(C)C)C3COC(=O)[C@H]23)OCO4)cc(OC)c1O (stereo not given in full) | 3580 nM and 5200 nM | 633 nM and 1320 nM | 1450 nM and 3190 nM | 690 nM and 1290 nM | 45 nM and 192 nM | 1050 nM and 1660 nM | 1490 nM and 4290 nM | 2220 nM and 2630 nM | 48.1 nM and 152 nM | – | – | – | 397 nM and 1220 nM | 36.6 nM and 119 nM | < 10 nM and 26.9 nM | 65.2 nM and 150 nM | 137 nM and 316 nM | – | – | –
CCCCN(CCCC)C(=O)[C@H](CC)[C@@H]1CC[C@@H](C)[C@@H]([C@H](C)[C@@H](O)[C@@H](C)C(=O)[C@H](CC)C2O[C@]3(C=C[C@@H](O)[C@]4(CC[C@@](C)([C@H]5CC[C@](O)(CC)[C@H](C)O5)O4)O3)[C@H](C)C[C@@H]2C)O1 (stereo not given in full) | > 100000 nM | 8600 nM | 7530 nM | 2970 nM | 10500 nM | 6380 nM | > 100000 nM | 3910 nM | 5510 nM | 5990 | 3570 | 2260 | 2670 nM | 1430 nM | 3040 nM | 2060 nM | 3170 nM | 1830 | 2010 | 2450
CC(C)(C)c1cc(C(=O)Nc2ccccc2C(=O)NCCN)cc(C(C)(C)C)c1 | 3120 nM | 3170 nM | 3700 nM | 2980 nM | 3460 nM | 3590 nM | 3620 nM | 3400 nM | 3740 nM | 3410 | 1680 | 1670 | 1940 nM | 1530 nM | 1840 nM | 1880 nM | 1860 nM | 1790 | 1960 | 1810
Cn1cc(/C=C\[N+](=O)[O-])c2ccccc21 | > 100000 nM | > 100000 nM | > 100000 nM | 36000 nM | > 100000 nM | > 100000 nM | > 100000 nM | > 100000 nM | > 100000 nM | > 100000 | 78300 | > 100000 | > 100000 nM | 18000 nM | > 100000 nM | 52900 nM | > 100000 nM | 34900 | 53300 | 42300
C=C1C[C@H]2C=Nc3cc(OCCCOc4cc5c(cc4OC)C(=O)N4CC(=C)C[C@H]4C=N5)c(OC)cc3C(=O)N2C1 | < 177 nM | 289 nM | 34.7 nM and < 28.2 nM | – | 92.2 nM | 640 nM | – | 72.2 nM and 16.9 nM | 48.2 nM | 34.3 | – | – | 16.8 nM and < 12.8 nM | – | – | 7.06 nM | – | 20.1 | – | 5.46
CCCCC1=CSC(c2ccccc2)=C(c2ccccc2)S1 | > 100000 nM | > 100000 nM | – | > 100000 nM | – | > 100000 nM | – | > 100000 nM | > 100000 nM | > 100000 | – | – | – | – | – | – | – | – | – | –
COc1cc([N+](=O)[O-])c(OC)cc1-c1nc2sc(C)c(C)n2c1/C(N)=N/C(=N)N | > 100000 nM | > 100000 nM | – | – | > 100000 nM | > 100000 nM | – | > 100000 nM | – | > 100000 | > 100000 | > 100000 | – | – | > 100000 nM | > 100000 nM | – | > 100000 | – | 13600
Cc1ccc(NC(=O)CCc2nc(=S)[nH][nH]2)cc1 | > 100000 nM | > 100000 nM | > 100000 nM | – | > 100000 nM | > 100000 nM | > 100000 nM | > 100000 nM | > 100000 nM | > 100000 | – | – | – | – | – | – | – | – | – | –
O=C(O)C1=C/C(=C(/c2ccccc2)c2cc(C(=O)O)c(O)c3ccccc23)c2ccccc2C1=O | > 100000 nM | > 100000 nM | > 100000 nM | – | > 100000 nM | > 100000 nM | > 100000 nM | > 100000 nM | > 100000 nM | > 100000 | – | – | – | – | – | – | – | – | – | –
CN=c1ss/c(=N\C(=S)N(C)C)n1C | > 100000 nM | > 100000 nM | > 100000 nM | – | > 100000 nM | > 100000 nM | > 100000 nM | > 100000 nM | > 100000 nM | – | – | – | – | – | – | – | – | – | – | –
COc1ccc2c(c1)OC(N)=C(C#N)C2c1cc(OC)c(OC)c(OC)c1 (stereo not given) | – | > 100000 nM | 151 nM | > 100000 nM | > 100000 nM | > 44400 nM | > 100000 nM | – | > 100000 nM | 61 | – | 433 | 32.1 nM | 34.6 nM | 69.1 nM | 30 nM | 64.2 nM | – | 57.3 | 24.4
